From patent US20030158250A1, “Agents correcting gene expression regulatory error” (priority 2000, published 2003) come the findings set out here.

Assay [1] relates to interleukin-6 (IL-6). As to the kind of experiment: TPA-induced IL-6 production in peritoneal macrophage (ELISA). Type of assay: cell-based. The following applies: mouse peritoneal macrophage, final concentrations 20 μM and 10 μM, 14 hours, IL-6 in culture supernatant by ELISA. The method, then:
Four milliliters of a 10% fetal bovine serum-containing RPMI 1640 medium (manufactured by Bio Whittaker, 12-702F) was intraperitoneally injected to ddy mouse (Nippon SLC, female, 7-weeks old), and the mouse was well massaged, and the medium was taken out to obtain peritoneal cells. The peritoneal cells were suspended in the 10% fetal bovine serum-containing RPMI 1640 medium so as to have a concentration of 10^6 cells/ml, and dispensed into 48-well microtiter plate in a volume of 500 μl each. The peritoneal cells were cultured at 37° C. for 2 hours in the presence of 5% CO2 gas. Thereafter, the culture supernatant was removed to give adherent cells to be used as peritoneal macrophage. To each well was freshly dispensed a Dulbecco's modified Eagle's medium (manufactured by Bio Whittaker; 12-917F) without phenol red containing 10% fetal bovine serum and 2 mM L-glutamine in a volume of 500 μl. […] The content of interleukin-6 (IL-6) in the culture supernatant was assayed by enzyme immuno-sandwich assay (ELISA: Matched antibody Pair SamplePak mouse IL-6, manufactured by Endogen). Here, the group with no addition of DGE and TPA aqueous solution (control) was set as a negative control, and the group with addition of TPA aqueous solution alone (control+TPA) was set as a positive control. In addition, all of the assays were carried out twice.
In general terms: ELISA stands for enzyme-linked immunosorbent assay.

Assay [2] deals with interleukin-10 (IL-10). As to the kind of experiment: LPS-induced IL-10 production in RAW 264.7 cells (ELISA). Particulars: final concentration 20 μM, 5 hours, then LPS 18 hours, IL-10 in culture supernatant by ELISA. Format: cell-based. The method, then: RAW 264.7 cells (ATCC TIB 71) were suspended in a Dulbecco's modified Eagle's medium (manufactured by Bio Whittaker; 12-604F) containing 10% fetal bovine serum (manufactured by Gibco), so as to have a concentration of 3×10^5 cells/ml. The cell suspension was added to each well of a 48-well microtiter plate in a volume of 0.5 ml each. The cells were cultured at 37° C. in the presence of 5% CO2 gas overnight. To each well was added 5 μl of a 2 mM DGE aqueous solution (final concentration: 20 μM), and the cells were cultured for additional 5 hours. Thereafter, 5 μl of a 100 μg/ml lipopolysaccharide (LPS, manufactured by Sigma, L-2012) aqueous solution was added thereto, and the cells were cultured for 18 hours, and thereafter the culture supernatant was recovered. The content of the interleukin-10 (IL-10) in the culture supernatant was assayed by the enzyme immuno-sandwich assay. Here, the group with no addition of DGE and LPS aqueous solution (control) was set as a negative control, and the group with addition of LPS aqueous solution (control+LPS) alone was set as a positive control. In addition, all of the assays were carried out twice.

For assay [3], the system named is HO1 protein. As to the kind of experiment: HO1 protein induction in RAW 264.7 cells (Western blot). Format: cell-based. Details: key to Intensity of Bands of HO1 Protein: those showing no bands are indicated by “−,”; the intensities of the bands are indicated by +−, +, ++ in the ascending order of the intensities of the bands; the intensities of the bands are indicated by +−, +, ++ in the ascending order of the intensities of the bands; the intensities of the bands are indicated by +−, +, ++ in the ascending order of the intensities of the bands. The following applies: for induction action for HO production (band ascribed to HO1 protein): 15 hours, DGE at 10 to 40 μM. As to the method: RAW 264.7 cells (ATCC TIB 71) were suspended in a Dulbecco's modified Eagle's medium (manufactured by Bio Whittaker; 12-604F) containing 10% fetal bovine serum (manufactured by Gibco), so as to have a concentration of 3×10^5 cells/ml. The cell suspension was added to each well of a 6-well microtiter plate in a volume of 5 ml each. The cells were cultured at 37° C. in the presence of 5% CO2 gas overnight. To each well was added 50 μl of 4 mM, 2 mM or 1 mM DGE aqueous solution (each of final concentrations: 40 μM, 20 μM or 10 μM), and the cells were cultured for 15 hours. […] The cells were harvested by peeling off the cells from the plate with a scraper. The harvested cells were suspended in 0.1 M Tris-HCl buffer (pH 7.5) containing 0.05 mM pepstatin (manufactured by Sigma, P5318), 0.2 mM leupeptin (manufactured by Sigma, L2884), 1 mM phenylmethylsulfonyl fluoride (manufactured by nakalai tesque, 273-27), 10 mM disodium dihydrogenethylenediaminetetraacetate and 0.1% Triton X-100, and subjected to freezing and thawing once. Thereafter, the supernatant obtained by centrifugation was used as a protein fraction. The protein content in the protein fraction was assayed by Micro BCA Protein Assay Reagent (one manufactured by Pierce sold by Takara Shuzo Co., Ltd., P7411). Each of the resulting protein fraction samples was mixed with an equal volume of 0.125 M Tris-HCl buffer (pH 6.8) containing 4% sodium lauryl sulfate (SDS), 2% 2-mercaptoethanol,
0.001% Bromophenol Blue and 20% glycerol, and the mixture was treated at 100° C. for 5 minutes. A mixture containing a protein in an amount of 10 μg or so was loaded on 12.5% SDS-polyacrylamide gel, and electrophoresed with a constant current of 20 mA. In a blotting buffer containing 48 mM Tris, 39 mM glycine, 20% methanol, 0.0375% SDS, the gel after the electrophoresis was transferred to a PDVF membrane (manufactured by Millipore Corporation, IPVHOOO 10) in accordance with the attached protocol, using transblot SD cell semi-drive blotting device (manufactured by BioRad), at a constant voltage of 15 V for 25 minutes. The transferred PVDF membrane was blocked overnight in a Block Ace (manufactured by DAINIPPON PHARMACEUTICAL CO., LTD., UK-B25) solution at 4° C. The blocked membrane was washed for 15 minutes thrice with phosphate-buffered physiological saline containing 0.1% Tween 20 under gentle shaking. Thereafter, the membrane was subjected to the reaction under gentle shaking in phosphate-buffered physiological saline containing 10% Block Ace with a 200 ng/ml anti-HOl antibody (N-19, manufactured by Santa Cruz, sc-7696) and 0.1% Tween 20 at room temperature for 1 hour, and was washed for 15 minutes thrice with phosphate-buffered physiological saline containing 0.1% Tween 20 under gentle shaking. Next, the membrane was subjected to the reaction under gentle shaking in phosphate-buffered physiological saline with 10% Block Ace with 0.1% peroxidase-conjugated rabbit anti-goat IgG (H+L) antibody (manufactured by Zymed, 61-1620) and 0.1% Tween 20 at room temperature for 1 hour, and was washed for 15 minutes five times with phosphate-buffered physiological saline containing 0.1% Tween 20 under gentle shaking. Subsequently, a PVDF membrane was stained by using Western blot Chemiluminescence Reagent Plus (one manufactured by NEN Life Science Products sold by Daiichikagaku, NEL103) in accordance with the attached protocol, and sensitized on an X-ray film (manufactured by Kodak, CAT 1651454). The sensitized film was developed with FPM800 (manufactured by Fuji Photo Film Co., Ltd.).
As a result, there could be confirmed a band ascribed to HO1 protein in the group with addition of DGE. […] In the table, + symbols were given in accordance with the intensity of the band for HO1 protein. In other words, in Table 3, those showing no bands are indicated by “−,” and the intensities of the bands are indicated by +−, +, ++ in the ascending order of the intensities of the bands.
In general terms: In western blotting, separated proteins are transferred to a membrane and probed.

Assay [4] concerns HL-60 cells.
Assay [5] concerns TNFα. As to the kind of experiment: LPS-stimulated TNFα production in monocytes (ELISA). Type of assay: cell-based. Particulars: human monocytes, final concentration 50 μM, 100 μM or 200 μM, 5 hours, then LPS 4 hours. As to the method: PBMCs were isolated in the same manner as in item (1) of Example 4. PBMCs were suspended in RPMI 1640 medium containing 5% human serum of blood type-AB, 0.1 mM nonessential amino acid, 1 mM sodium pyruvate, 2 mM L-glutamine (hereinabove manufactured by Bio Whittaker), 10 mM HEPES (manufactured by nakalai tesque), and 1% streptomycin-penicillin (manufactured by Gibco BRL) (hereinafter simply referred to as “5HRPMI medium”) so as to have a concentration of 2×10^6 cells/ml. Thereafter, the suspension was spread on a 24-well cell culture plate (manufactured by Falcon) in a volume of 1 ml/well, and the cells were incubated in a wet-type incubator at 37° C. and 5% CO2 for 1.5 hours. After 1.5 hours, the non-adherent cells were removed by suction, and each well was washed with RPMI 1640 medium, and 1 ml of the 5HRPMI medium was added to the wells, to give monocytes.
To the monocytes obtained above was added in each well 10 μl of a 1 mM, 2 mM or 4 mM aqueous DGE solution (each having a final concentration of 10 μM, 20 μM or 40 μM), or a 5 mM, 10 mM or 20 mM aqueous agarobiose solution (each having a final concentration of 50 μM, 100 μM or 200 μM), or 10 μl of water as a control (i.e. each of concentrations of DGE and agarobiose being 0 μM), and the cells were incubated in a wet-type incubator at 37° C. and 5% CO2 for 5 hours. […]

Turning to `N[C@@H](CCC(=O)N[C@@H](CSC1CC2(O)OCC1OC2O)C(=O)NCC(=O)O)C(=O)O` (stereo partly drawn) [DGE-GSH, 5-L-glutathion-S-yl-2-hydroxy-3,7-dioxabicyclo[2.2.2]octan-1-ol], the “inhibition of TPA-induced IL-6 production” value in assay [1] was “inhibitory action”. Besides, the “inhibition of LPS-induced IL-10 production” value in assay [2] is “inhibitory action”. Also, the “induction action for HO production (band ascribed to HO1 protein)” value in assay [3] is on record as “induction action”. For the same compound, the “inhibitory activity for cancer cell proliferation” value in assay [4] is listed as “active”.

Regarding `OC[C@H]1O[C@@H](O[C@H]2[C@H]3OC[C@@H]2OC(O)[C@H]3O)[C@H](O)[C@@H](O)[C@H]1O` (mixture of isomers) [agarobiose], in assay [5], the “inhibition of LPS-stimulated TNFα production” value is “inhibition”.

Turning to `CCCCC/C=C/C=C1/C(=O)C=C[C@@H]1C/C=C\CCCC(=O)O` [15-Deoxy-Δ12,14 prostaglandin J2, reference compound], the “Intensity of Bands of HO1 Protein” value in assay [3] (5 μl of 3 mM dimethyl sulfoxide solution added to 5 ml well, positive control) is on record as “++”.

As for `O=C1C=CC(CO)OC1O` [κ-DGE, D-Glycero-1,5-epoxy-1αβ,6-dihydroxy-cis-hex-3-en-2-one], in assay [1] (listed as K-DGE), the “inhibition of TPA-induced IL-6 production” value is on record as “inhibitory action”. Also, in assay [2], the “inhibition of LPS-induced IL-10 production” value is given as “inhibitory action”. Moreover, the “induction action for HO production (band ascribed to HO1 protein)” value in assay [3] is recorded as “induction action”.
